# Test results taken from patent publication US20050221456A1, “Use of indanoyl amide to stimulate secondary metabolism in Taxus sp” (Phyton Biotech, Inc., priority 2004, published 2005).
# Experiments:
# [1] = test system: Taxus chinensis cells; assay: Effect of 6-BII on taxane production in suspension culture (14 days); type: cell-based; conditions: for Baccatin III / Paclitaxel / Total taxanes: 14 days in production medium with NAA, MDCA, GLN, silver thiosulfate
# Experimental: (§1) This experiment was carried out according to the following parameters. Taxus chinensis cells were cultivated as callus and then as suspended cells on growth medium (Medium A, Table B) according to the methods described above. After seven days of cultivation in this medium, the suspended cells were substantially separated from this medium and placed at approximately 20% (w/v) fresh cells into a basal production medium (Medium B, Table B) with an initial pH of 5.8. In addition to the ingredients listed in Table B, the medium comprised 20 micromol/l NAA, 20 micromol/l MDCA, 5 mmol/l GLN, and 50 micromol/l silver as a thiosulfate complex. The gas phase was controlled to oxygen at 90-97% of the levels in air and 2.5-6% CO2; the temperature was held at 25±2 degrees Celsius. The cells were cultivated in the dark and were agitated at 150-200 rpm for the duration of the experiment. After 14 days of cultivation in production medium, the culture was harvested for taxanes.
# [2] = test system: Taxus chinensis cells; assay: Fed batch addition of 6-EII, taxane production in Taxus chinensis suspension culture (12 days); type: cell-based; conditions: for Baccatin III / Paclitaxel: harvest after 12 days in production medium; for Total: total taxanes, harvest after 12 days
# From the text: The medium also contains an indanoyl amide as described in the present application, optionally in combination with one or more jasmonic acid-related substance, and these materials may be added at the beginning of the culture, after the exponential growth phase, or intermittantly throughout the culture period. The other ingredients of the medium may be added all at one time or at different times during the cultivation and may be fed continuously or intermittently. The ingredients may be added either before or after the inclusion of plant cells in the culture broth. Further, nutrients or other ingredients may be additionally added during cultivation, if deemed useful. Optionally, the medium may be changed after a suitable period of cultivation whereby the cells are freshly exposed to a medium containing similar ingredients as described above. Such changes could involve changes to the amounts of sugars such as glucose, fructose, sucrose, maltose, etc., nitrogen sources such as nitrate, ammonium, or amino acids or casamino acids, etc. After a period of cultivation, the culture is harvested and the levels of taxanes are quantified using HPLC and specific taxanes are identified using LC/MS/MS. Taxanes can be recovered from these cultures by appropriate extraction and purification procedures. For Experiments 2-8, Taxus cells were cultivated as callus cultures on solid medium and then further cultivated as suspensions of cell aggregates in liquid medium. Although taxanes can be produced by cultivation on solid medium, the use of liquid medium is preferred. The temperature of cultivation was controlled between 20 and 30 degrees Celsius. This experiment was carried out according to the following parameters. […] Taxus chinensis cells were cultivated as callus and then as suspended cells in growth medium (Medium A shown in Table B) containing 1% maltose and B5 salts according to the methods described above. After seven days of cultivation in this medium, the suspended cells were substantially separated from this medium and placed at about 20% (w/v) fresh cells into a production medium consisting of about 20% (v/v) spent growth medium and 80% (v/v) basal production medium (Medium B shown in Table B, but 1.25-fold concentrated) with an initial pH of 5.8 and containing 20 micromol/l MDCA and 50 micromol/l SLTS (Silver Thiosulfate). […] The gas phase was controlled to 25% oxygen and 4.5% CO2 (balance nitrogen) and the temperature was held at 25±2 degrees Celsius. The cells were cultivated in the dark and were agitated at 100-150 rpm for the duration of the experiment. After 12 days of cultivation in production medium, the culture was harvested for taxanes.
# [3] = test system: Taxus cells; assay: Batch addition of 6-EII in combination with other medium components, taxane production; type: cell-based; conditions: batch mode
# Experimental: Taxus cells were cultivated using procedures similar to those used for Example 2. The media were composed of different combinations of 6-EII (or methyl jasmonate-MJS), NAA, SLTS, MDCA and Glutamine. All ingredients were added in a batch mode, i.e., all at once.
# [4] = test system: Taxus chinensis cells; assay: Effect of 6-EII in combination with other medium ingredients on taxane yield (14 days); type: cell-based
# Experimental: This experiment was carried out according to the following parameters. Taxus chinensis cells were cultivated as callus and then as suspended cells on growth Medium A (Table B), according to the methods described above. After seven days of cultivation in this medium, the suspended cells were substantially separated from this medium and placed at approximately 20% (w/v) fresh cells into a basal production medium (Medium B, Table B) with an initial pH of 5.8. In addition to the components listed in Medium B, the medium additionally comprised 5 millimol/l glutamine. The gas phase was controlled to oxygen at 90-97% of the value in air and 2.5-6% CO2; the temperature was held at 25±2 degrees Celsius. The cells were cultivated in the dark and were agitated at 150-200 rpm for the duration of the experiment. After 14 days of cultivation in production medium, the culture was harvested for taxanes.
# [5] = test system: Taxus chinensis cells; assay: Effect of silver nitrate and 6-EII on taxane production (14 days); type: cell-based; conditions: silver as nitrate salt or thiosulfate complex
# From the text: Taxus chinensis cells were cultivated as callus and then as suspended cells on growth medium (Table B, Medium A) according to the methods described above in Examples 1 and 2. After seven days of cultivation in this medium, the suspended cells were substantially separated from this medium and placed at ca. 20% (w/v) fresh cells into Medium B (Table B) at an initial pH of 5.8. In addition to the components listed in Table B, 20 micromol/l NAA, 20 micromol/l MDCA, 5 mmol/l GLN, MJS or 6-EII and silver as a nitrate salt or thiosulfate complex were added to the medium at various levels. The gas phase was controlled to oxygen at 90-97% of the levels in air and CO2 at 2.5-6%; the temperature was held at 25±2 degrees Celsius. The cells were cultivated in the dark and were agitated at 150-200 rpm for the duration of the experiment. After 14 days of cultivation in production medium, the culture was harvested for taxanes.
# [6] = test system: Taxus chinensis cells; assay: Effect of 1-OII on accumulation of taxanes by Taxus cell suspension culture (14 days); type: cell-based; conditions: for Baccatin III / Paclitaxel / Total taxanes: 14 days in production medium with NAA, MDCA, GLN, silver thiosulfate
# Experimental: as §1, with “ca.” for “approximately”, “also contained” for “comprised”, “value” for “levels”
# [7] = test system: touch-sensitive tendrils of Bryonia diocia; conditions: quoted from Schuler et al. WO 02/55480; cited from earlier work
# [8] = test system: paclitaxel and taxanes biosynthesis; conditions: teaching of EP 727492 (Yukimune et al.); cited from earlier work
# [9] = test system: tendril coiling; conditions: quoted from Haider et al.; cited from earlier work
# [10] = test system: Eschscholzia californica Cell Cultures; conditions: compared with the octadecanoids or coronatine; quoted from Haider et al.; cited from earlier work
# [11] = cumulative 12-day fed batch dose 20 micromol/l
# [12] = cumulative 12-day fed batch dose 50 micromol/l
# [13] = cumulative 12-day fed batch dose 75 micromol/l
# [14] = cumulative 12-day fed batch dose 100 micromol/l
# [15] = cumulative 12-day fed batch dose 30 micromol/l
molecule,measurement,setting,value
6-Bromoindanoyl isoleucine [6-BII],induction of taxanes production,[1]; T. chinensis cell cultures,effective inducer of taxanes production
same,Baccatin III,[1]; dose 5 micromol/l,92 mg/L
same,Paclitaxel,[1]; dose 5 micromol/l,235 mg/L
same,Total taxanes,[1]; dose 5 micromol/l,423 mg/L
same,Baccatin III,[1]; dose 20 micromol/l,114 mg/L
same,Paclitaxel,[1]; dose 20 micromol/l,230 mg/L
same,Total taxanes,[1]; dose 20 micromol/l,441 mg/L
same,Baccatin III,[1]; dose 50 micromol/l,174 mg/L
same,Paclitaxel,[1]; dose 50 micromol/l,254 mg/L
same,Total taxanes,[1]; dose 50 micromol/l,580 mg/L
same,Baccatin III,[1]; dose 100 micromol/l,313 mg/L
same,Paclitaxel,[1]; dose 100 micromol/l,360 mg/L
same,Total taxanes,[1]; dose 100 micromol/l,962 mg/L
same,Baccatin III,[1]; dose 200 micromol/l,307 mg/L
same,Paclitaxel,[1]; dose 200 micromol/l,375 mg/L
same,Total taxanes,[1]; dose 200 micromol/l,1060 mg/L
same,Baccatin III,[1]; dose 500 micromol/l,1 mg/L
same,Paclitaxel,[1]; dose 500 micromol/l,0 mg/L
same,Total taxanes,[1]; dose 500 micromol/l,105 mg/L
6-ethyl-indanoyl-isoleucine [6-EII],activity on taxane production compared with methyl jasmonate,[2]; 12-day fed batch treatment,comparable activity
same,Baccatin III,[2]; [11],159 mg/L
same,Paclitaxel,[2]; [11],443 mg/L
same,Baccatin III,[2]; [12],358 mg/L
same,Paclitaxel,[2]; [12],495 mg/L
same,Baccatin III,[2]; [13],605 mg/L
same,Paclitaxel,[2]; [13],556 mg/L
same,Baccatin III,[2]; [14],616 mg/L
same,Paclitaxel,[2]; [14],557 mg/L
same,Total,[2]; [11],694 mg/L
same,Total,[2]; [12],1301 mg/L
same,Total,[2]; [13],1693 mg/L
same,Total,[2]; [14],1702 mg/L
same,activity in improving taxane production compared with MJS,[3]; all ingredients added at once,comparable activity in improving taxane production
same,interaction with auxin-type growth regulator NAA on taxane production,[3]; combined with NAA,interact positively to improve taxane production
same,interaction with glutamine on taxane production,[3]; combined with glutamine,interact favorably to improve taxane production
same,interaction with silver on overall production of taxanes,[3]; combined with silver (SLTS),works synergistically with silver to increase overall production of taxanes
same,effect on baccatin-III versus paclitaxel production,[3]; with silver,improve baccatin-III production without reducing the amount of paclitaxel produced
same,"taxane yield, 6-EII by itself","[4]; 6-EII 5-500 micromol/l, by itself",increase in taxane yield
same,"taxane yield, combined with NAA",[4]; 6-EII with 20 micromol/l NAA,yield improved by a significantly higher amount
same,"taxane yield, combined with NAA and silver",[4]; 6-EII with 20 micromol/l NAA and 50 micromol/l silver (thiosulfate complex),yield further increased
same,"taxane yield, combined with NAA, silver and MDCA","[4]; 6-EII with 20 micromol/l NAA, 50 micromol/l silver and 20 micromol/l MDCA",yield increased even further
same,interaction with silver on taxane production,[5],act synergistically
"CC[C@H](C)[C@H](NC(=O)c1cccc2c1CCC2=O)C(=O)OC [1-OII, 1-oxo-indane-carboxy-(L)-isoleucine-methyl ester amide]",induction of taxanes production,[6]; Taxus suspension culture,effective inducer of taxanes production
same,Baccatin III,[6]; dose 5 micromol/l,50 mg/L
same,Paclitaxel,[6]; dose 5 micromol/l,192 mg/L
same,Total taxanes,[6]; dose 5 micromol/l,300 mg/L
same,Baccatin III,[6]; dose 20 micromol/l,72 mg/L
same,Paclitaxel,[6]; dose 20 micromol/l,248 mg/L
same,Total taxanes,[6]; dose 20 micromol/l,400 mg/L
same,Baccatin III,[6]; dose 50 micromol/l,112 mg/L
same,Paclitaxel,[6]; dose 50 micromol/l,349 mg/L
same,Total taxanes,[6]; dose 50 micromol/l,580 mg/L
same,Baccatin III,[6]; dose 100 micromol/l,242 mg/L
same,Paclitaxel,[6]; dose 100 micromol/l,409 mg/L
same,Total taxanes,[6]; dose 100 micromol/l,822 mg/L
same,Baccatin III,[6]; dose 200 micromol/l,375 mg/L
same,Paclitaxel,[6]; dose 200 micromol/l,407 mg/L
same,Total taxanes,[6]; dose 200 micromol/l,1055 mg/L
same,Baccatin III,[6]; dose 500 micromol/l,45 mg/L
same,Paclitaxel,[6]; dose 500 micromol/l,67 mg/L
same,Total taxanes,[6]; dose 500 micromol/l,368 mg/L
CCc1cc2c(c(C(=O)N[C@H](C(=O)OC)[C@@H](C)CC)c1)CCC2=O [6-ethyl-1-oxo-indanoyl isoleucine methyl ester],elicitation of the coiling reaction of tendrils,[7],potent elicitor
CCC1CC1(NC(=O)C1=C[C@H](CC)C[C@@H]2C(=O)CC[C@H]12)C(=O)O (some centres unmarked) [Coronatine],induction of paclitaxel and taxanes biosynthesis,[8],shown to induce paclitaxel and taxanes biosynthesis
same,induction of tendril coiling,[9],strong inducers of tendril coiling
"CC/C=C\CC1C(=O)CCC1CC(=O)OC (centres unmarked) [MJS, methyl jasmonate, reference compound]",Baccatin III,[2]; [15],273 mg/L
same,Paclitaxel,[2]; [15],490 mg/L
same,Total,[2]; [15],1410 mg/L
same,activation of benzo[c]phenanthridine alkaloid accumulation,[10],much more effective
same,Baccatin III,[1]; dose 45 micromol/l,154 mg/L
same,Paclitaxel,[1]; dose 45 micromol/l,574 mg/L
same,Total taxanes,[1]; dose 45 micromol/l,912 mg/L
same,Baccatin III,[6]; dose 45 micromol/l,226 mg/L
same,Paclitaxel,[6]; dose 45 micromol/l,432 mg/L
same,Total taxanes,[6]; dose 45 micromol/l,854 mg/L
